The source of these data is patent US20200239530A1, “COMPOUNDS AND METHODS OF MODULATING PROTEIN DEGRADATION” (Vividion Therapeutics, Inc., priority 2017, published 2020).

The target in assay [1] is T1, CKB Creatine kinase B-type (Homo sapiens, UniProt P12277).
T1 construct: 200 μL of lysate containing 5 mg/ml proteome was treated with 2 μL of 100× compound stock; endogenous in cells
The assay is described as follows: Cysteine liganding, probe competition. It is filed as binding. An outline of the steps: (§1)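 Read-out is loss of desthiobiotin iodoacetamide labelling at cysteines, measured on streptavidin-enriched tryptic peptides. Compound preincubation ran 1 hr at 25° C in PBS lysate holding 5 mg/ml proteome before the probe was added.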

Assay [2] deals with T2, HERC4 Probable E3 ubiquitin-protein ligase HERC4 (Homo sapiens, UniProt Q5GLZ8).
T2 construct: Cells were resuspended in cold PBS on ice and sonicated with a probe sonicator to achieve lysis; endogenous in cells
T2 sequence (Q5GLZ8 1-1057): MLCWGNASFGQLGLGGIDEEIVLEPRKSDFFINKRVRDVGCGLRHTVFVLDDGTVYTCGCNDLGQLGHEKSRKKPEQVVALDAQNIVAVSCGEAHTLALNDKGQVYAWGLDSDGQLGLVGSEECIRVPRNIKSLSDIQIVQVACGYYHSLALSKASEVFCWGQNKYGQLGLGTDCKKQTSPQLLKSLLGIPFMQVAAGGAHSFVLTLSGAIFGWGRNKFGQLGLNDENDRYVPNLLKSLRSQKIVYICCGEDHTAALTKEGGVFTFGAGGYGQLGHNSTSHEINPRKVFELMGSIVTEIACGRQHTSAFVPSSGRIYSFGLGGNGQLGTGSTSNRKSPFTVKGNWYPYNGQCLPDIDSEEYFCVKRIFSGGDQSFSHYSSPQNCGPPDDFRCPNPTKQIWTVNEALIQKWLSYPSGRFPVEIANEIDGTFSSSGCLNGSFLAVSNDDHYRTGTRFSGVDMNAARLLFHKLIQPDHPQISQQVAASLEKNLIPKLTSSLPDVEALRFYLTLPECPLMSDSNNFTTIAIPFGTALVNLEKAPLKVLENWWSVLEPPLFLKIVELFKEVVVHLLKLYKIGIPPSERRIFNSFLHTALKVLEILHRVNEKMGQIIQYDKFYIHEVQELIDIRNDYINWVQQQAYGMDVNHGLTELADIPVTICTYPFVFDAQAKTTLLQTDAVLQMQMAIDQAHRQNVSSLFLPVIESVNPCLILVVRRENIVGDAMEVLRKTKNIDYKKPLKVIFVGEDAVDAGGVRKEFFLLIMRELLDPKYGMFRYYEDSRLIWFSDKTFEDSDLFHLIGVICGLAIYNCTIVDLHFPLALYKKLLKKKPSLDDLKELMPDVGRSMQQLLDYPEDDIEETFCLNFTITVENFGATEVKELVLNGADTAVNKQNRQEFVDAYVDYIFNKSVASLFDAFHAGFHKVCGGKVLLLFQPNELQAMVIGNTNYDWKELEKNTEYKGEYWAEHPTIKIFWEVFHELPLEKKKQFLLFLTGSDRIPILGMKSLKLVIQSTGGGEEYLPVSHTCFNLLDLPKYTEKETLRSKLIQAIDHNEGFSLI
The assay is described as follows: Cysteine liganding, probe competition. It is filed as binding. The gist of the method:
as §1

T1 sequence (P12277 whole entry): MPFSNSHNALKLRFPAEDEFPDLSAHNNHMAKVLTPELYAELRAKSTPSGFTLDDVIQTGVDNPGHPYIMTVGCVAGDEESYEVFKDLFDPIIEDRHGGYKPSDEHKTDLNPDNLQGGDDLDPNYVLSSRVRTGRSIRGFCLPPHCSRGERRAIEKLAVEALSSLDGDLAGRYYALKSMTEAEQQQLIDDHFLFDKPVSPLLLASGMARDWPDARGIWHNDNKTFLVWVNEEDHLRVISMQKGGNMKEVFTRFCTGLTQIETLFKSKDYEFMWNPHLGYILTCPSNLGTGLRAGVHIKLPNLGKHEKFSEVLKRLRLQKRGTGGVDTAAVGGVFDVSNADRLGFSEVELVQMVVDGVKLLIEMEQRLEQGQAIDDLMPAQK

With `O=C(CCl)Nc1cc(C(F)(F)F)cc(C(F)(F)F)c1` [KBO3], the “100 Max” value is reported as 23.24 in assay [1] (uniprot P12277) and 42.0 in assay [2] (uniprot Q5GLZ8). In addition, the 100 ave was 15.155 in assay [1] (uniprot P12277) and 15.4 in assay [2] (uniprot Q5GLZ8). Also, the results for the 500 ave in assay [1] (uniprot P12277) and in assay [2] (uniprot Q5GLZ8) were 71.73 and 58.8, respectively. Further, the “500 Max” value in assay [1] (uniprot P12277, in % (unit assumed)) came to 71.73; in assay [2] (uniprot Q5GLZ8, unit assumed), 62.3%.
Take `COc1ccc2c(c1)CCCN2C(=O)CCl` [KB02]: the Liganded entry in assay [1] (CKB Res# 283, uniprot P12277) is “YES”; in assay [2] (HERC4 Res# 60, uniprot Q5GLZ8), “YES”.
